Measured values published in patent US20060079453A1, “Hla binding peptides and their uses” (priority 2002, published 2006).
No end group written: not given here.

Columns and labels:
Assay in all cases: biochemical
Type in all cases: binding
HLA-DR DRB3*0101 (DR52) = HLA-DR DRB3*0101 (DR52) (Homo sapiens, UniProt P01903+P79483)
HLA-DR DRB5*0101 (DR51) = HLA-DR DRB5*0101 (DR51) (Homo sapiens, UniProt P01903+Q30154); conditions: DRB5 *0101
HLA-DR DRB1*1101 (DR11) = HLA-DR DRB1*1101 (DR11) (Homo sapiens, UniProt P01903+P01911, A100R/A169T/A87E/I96F/K41T/L162R/M171V/P40S/Q125H/Q178H/Q39Y/Q99D/R42S/S66Y/T262R/V115G/W38E); conditions: DRB1 *1101
Sequence of HLA-DR DRB1*1101 (DR11) (P01903 26-254 limits assumed, other chains not shown): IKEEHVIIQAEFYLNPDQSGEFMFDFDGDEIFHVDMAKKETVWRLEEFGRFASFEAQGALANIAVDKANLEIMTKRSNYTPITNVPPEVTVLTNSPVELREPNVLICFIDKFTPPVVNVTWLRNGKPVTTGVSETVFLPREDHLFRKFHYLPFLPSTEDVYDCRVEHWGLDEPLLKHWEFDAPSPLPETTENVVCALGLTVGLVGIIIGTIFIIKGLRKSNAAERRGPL

HLA-DR DRB1*0901 (DR9) = HLA-DR DRB1*0901 (DR9) (Homo sapiens, UniProt P01903+P01911, A100R/A103E/D57H/D86V/F55Y/F60I/F76Y/I96F/K127E/L162R/M171V/P40D/Q125H/Q99R/R33Q/R42F/S133A/S66N/T210M/V115G/W38K/Y107V/Y59G/Y89S); conditions: DRB1 *0901
HLA-DR DRB1*0101 (DR1) = HLA-DR DRB1*0101 (DR1) (Homo sapiens, UniProt P01903+P01911, A100R/D57E/F55L/F60I/F76Y/I96L/L162R/M171V/P40L/Q125E/R42F/V115G/Y59C); conditions: DRB1 *0101
HLA-DR DRB1*0401 (DR4) = HLA-DR DRB1*0401 (DR4) (Homo sapiens, UniProt P01903+P01911, A100K/A169T/F76Y/I96L/K127E/L162R/M171V/N62H/P40V/Q125Y/R42H/S133A/S149N/S66Y/V115G/V209L/W38E); conditions: DRB1 *0401
HLA-DR DRB1*1501 (DR15) = HLA-DR DRB1*1501 (DR15) (Homo sapiens, UniProt P01903+P01911); conditions: DRBI *1501
HLA-DR DRB1*0802 (DR8) = HLA-DR DRB1*0802 (DR8) (Homo sapiens, UniProt P01903+P01911, A100R/A103L/A169T/F76Y/H45Y/I96F/K41T/L162R/M171V/P40S/Q125H/Q178H/Q39Y/Q99D/R218S/R42G/S66Y/V115G/W38E)
HLA-DR DRB1*1302 (DR13) = HLA-DR DRB1*1302 (DR13) (Homo sapiens, UniProt P01903+P01911, A100E/A169T/K41T/L162R/M171V/P40S/Q125H/Q178H/Q39Y/Q99D/R42S/S66N/T262R/V115G/W38E/Y61H); conditions: DRBI *1302
Sequence of HLA-DR DRB1*1302 (DR13) (P01903 26-254 limits assumed, other chains not shown): as above

HLA-DR DRB4*0101 (DR53) = HLA-DR DRB4*0101 (DR53) (Homo sapiens, UniProt P01903+P13762, G164S); conditions: DRB4 *0101
HLA-DR DRB1*0701 (DR7) = HLA-DR DRB1*0701 (DR7) (Homo sapiens, UniProt P01903+P01911, A100R/A102G/A103Q/D57E/D86V/E43K/F76Y/K127E/L162R/M171V/P40G/Q125H/Q99D/R33Q/R42Y/R54Q/S133A/S66F/T210M/V115G/Y107V/Y59L/Y89S); conditions: DRB1 *0701

Compound	IC50 (HLA-DR DRB3*0101 (DR52)) [µM]	IC50 (HLA-DR DRB5*0101 (DR51)) [µM]	IC50 (HLA-DR DRB1*1101 (DR11)) [µM]	IC50 (HLA-DR DRB1*0901 (DR9)) [µM]	IC50 (HLA-DR DRB1*0101 (DR1)) [nM]	IC50 (HLA-DR DRB1*0401 (DR4)) [µM]	IC50 (HLA-DR DRB1*1501 (DR15)) [nM]	IC50 (HLA-DR DRB1*0802 (DR8)) [µM]	IC50 (HLA-DR DRB1*1302 (DR13)) [nM]	IC50 (HLA-DR DRB4*0101 (DR53)) [nM]	IC50 (HLA-DR DRB1*0701 (DR7)) [µM]
NMSLLKHQSLRPDED [NMSLLKHQSLRPDED]	> 14.9	> 100	25.8	96.8	3130	> 40	> 30300	26.5	> 35000	–	–
CC[C@H](C)[C@H](NC(=O)[C@H](CCC(N)=O)NC(=O)[C@@H](NC(=O)[C@H](Cc1ccccc1)NC(=O)[C@H](CC(N)=O)NC(=O)[C@H](Cc1ccc(O)cc1)NC(=O)[C@H](CC(C)C)NC(=O)[C@H](Cc1ccccc1)NC(=O)[C@@H](N)CCCCN)[C@@H](C)O)C(=O)N1CCC[C@H]1C(=O)N[C@@H](Cc1c[nH]cn1)C(=O)N[C@@H](CC(C)C)C(=O)N[C@@H](C)C(=O)NCC(=O)N[C@H](C(=O)O)[C@@H](C)O	10.2	1.6	0.091	0.054	340	–	–	0.415	221	256	0.03
TNKFSGYPLYHSVYE	> 21.9	2.94	33.3	0.741	3400	5.52	489	0.614	> 35000	–	30.9
LSGLHGQDLFGIWSK	> 8.83	81.7	30.2	> 125	148	> 26.7	32200	> 81.7	> 35000	–	> 35.7
LRMMNDQLMFLERAF	1.57	0.758	1.83	4.6	2700	0.392	–	2.49	1310	50	17.5
CC[C@H](C)[C@H](NC(=O)[C@@H](N)CC(C)C)C(=O)N[C@@H](CCSC)C(=O)N[C@@H](Cc1ccc(O)cc1)C(=O)N[C@@H](CO)C(=O)N[C@@H](C)C(=O)N[C@@H](Cc1c[nH]cn1)C(=O)N[C@@H](CC(=O)O)C(=O)N[C@H](C(=O)N[C@H](C(=O)N[C@H](C(=O)N[C@@H](CO)C(=O)NCC(=O)N[C@@H](CC(C)C)C(=O)N[C@@H](CCC(N)=O)C(=O)O)C(C)C)[C@@H](C)O)[C@@H](C)O	6.83	> 100	> 66.7	0.813	4500	0.024	184	24.8	1750	4380	–
CC[C@H](C)[C@H](NC(=O)[C@@H]1CCCN1C(=O)[C@H](Cc1c[nH]cn1)NC(=O)[C@@H](NC(=O)[C@@H]1CCCN1C(=O)[C@@H](NC(=O)[C@H](CO)NC(=O)[C@@H]1CCCN1C(=O)[C@H](CC(C)C)NC(=O)CNC(=O)[C@@H](NC(=O)[C@H](C)NC(=O)[C@H](CCC(=O)O)NC(=O)[C@H](C)N)C(C)C)[C@@H](C)CC)C(C)C)C(=O)NCC(=O)O	> 11.8	69.3	> 66.7	23.1	5.4	9.92	56	> 490	5460	–	2.02
